Results on 55 compounds are retold here after PMC12040169 (PLOS Biology, 2025).

Molecules are shown by their SMILES.

One data set in a line: in vitro. Conditions: human, hela cells, % viability.
The term viability denotes a read-out of living cells in per cent, often relative to untreated cells. As for `CCNC(=O)N1CC2(CCN(Cc3ccc4ccccc4c3)CC2)c2ccccc21` [CBK126696], the viability at 28.5 h, 10 µM came to 90%. As to `CCNC(=O)N1CC2(CCN(CC(N)=O)CC2)c2ccccc21` [CBK126701], the viability at 28.5 h, 10 µM is 95.3%. With `CCNC(=O)N1CC2(CCN(CCCCC3NC(=O)NC3=O)CC2)c2ccccc21` (stereo not shown) [CBK126707], the viability at 28.5 h, 10 µM came to 92.2%. Regarding `CCNC(=O)N1CC2(CCN(CCSC)CC2)c2ccccc21` [CBK126709], the viability at 28.5 h, 10 µM was 101%. In the case of `CCNC(=O)N1CC2(CCN(Cc3csc(C)n3)CC2)c2ccccc21` [CBK126712], the viability at 28.5 h, 10 µM was 103%.

`CC(C)C(=O)N1CC2(CCN(Cc3ccc(Cl)c(Cl)c3)CC2)c2ccccc21` [CBK126715]: the viability at 28.5 h, 10 µM is 94.7%.

For `CC(C)C(=O)N1CC2(CCN(Cc3nc4ccccc4[nH]3)CC2)c2ccccc21` [CBK126719], the viability at 28.5 h, 10 µM is 110%. With `CC(C)C(=O)N1CC2(CCN(Cc3ncc[nH]3)CC2)c2ccccc21` [CBK126731], the viability at 28.5 h, 10 µM worked out at 109%.

For the compound `CSc1cc(-c2ccc(Cl)cc2)c(C(=O)O)s1` [CBK126740], the viability at 28.5 h, 10 µM came out at 80.3%. Consider `Cc1ccc(C(=O)O)c(NC(=O)c2ccccc2F)c1` [CBK126744], for which the viability at 28.5 h, 10 µM is 98.9%. For `CN1CCN(C(=O)c2ccc(-c3cncc(-c4ccc(O)cc4)n3)c(F)c2)CC1` [CBK126752], the viability at 28.5 h, 10 µM stood at 100%. Consider `CCC1(CC)OC(N[C@@H](CO)c2ccccc2)=NC1=O` [CBK126756], for which the viability at 28.5 h, 10 µM was found to be 92.8%. Consider `OCCN1CC2(CCN(Cc3ncc[nH]3)CC2)c2ccccc21` [CBK126763], for which the viability at 28.5 h, 10 µM is 102%.

As for `OCCN1CC2(CCN(CCN3CCOCC3)CC2)c2ccccc21` [CBK126766], the viability at 28.5 h, 10 µM was 91.4%.

For `CSCCN1CCC2(CC1)CN(CCO)c1ccccc12` [CBK126771], the viability at 28.5 h, 10 µM was 94.6%. `NC(=O)CN1CC2(CCN(Cc3cccc(C(F)(F)F)c3)CC2)c2ccccc21` [CBK126776]: the viability at 28.5 h, 10 µM was 93.1%. On the same count and under the same terms, with `NC(=O)CN1CC2(CCN(CCc3c[nH]c4ccccc34)CC2)c2ccccc21` [CBK126784] the figure was 93.3%. Take `NC(=O)CN1CCC2(CC1)CN(CC(N)=O)c1ccccc12` [CBK126789]: the viability at 28.5 h, 10 µM worked out at 100%. Still for that read-out and setting: with `CCN1CCC2(CC1)CN(CC(N)=O)c1ccccc12` [CBK126798] the figure was 80.4%; with `CC1(C)Cc2c(sc(NC(=O)c3ccccc3Cl)c2C(=O)O)CO1` [CBK126806], 99.4%. Same read-out and setting: the figure for `COc1ccc(Nc2nc(-c3cccnc3)cs2)c(OC)c1` [CBK126814] is 92.6%; for `O=S(=O)(c1ccc(-c2cncc(-c3ccc(O)cc3)n2)cc1F)N1CCOCC1` [CBK126903] it is 94.3%; for `Cc1ccc2nc(C)cc(NCCO)c2c1` [CBK126909] it is 104%. For `CCCCc1c(C)nc2ccc(Br)cc2c1SCCC(=O)O` [CBK126915], the viability at 28.5 h, 10 µM was determined as 93.4%.

With `O=C(O)CSc1ccc(Br)c2cccc(C(=O)O)c12` [CBK126919], the viability at 28.5 h, 10 µM was 99.2%. Take `O=C(O)CCNc1ncnc2ccccc12` [CBK126920]: the viability at 28.5 h, 10 µM amounted to 99.4%. On the same count and under the same terms, with `CN(C)CCCNC(=O)C1CCN(c2cncc(-c3ccc(O)cc3)n2)CC1` [CBK126929T] the figure was 94.1%.

With `O=C(N1CCOCC1)N1CCN(c2cncc(-c3ccc(O)cc3)n2)CC1` [CBK126946T], the viability at 28.5 h, 10 µM stood at 96.6%. Turning to `CC(=O)N1CCN(c2cncc(-c3ccc(O)cc3)n2)CC1` [CBK126948T], the viability at 28.5 h, 10 µM was determined as 88.9%. Take `Nc1cccc(-c2ccc(OC3CCNCC3)cc2)c1` [CBK126959T]: the viability at 28.5 h, 10 µM came to 83.9%. `CC(C)n1c(SCC(=O)Nc2nc(C(C)(C)C)cs2)nc2c1c(=O)n(C)c(=O)n2C` [CBK127417]: the viability at 28.5 h, 10 µM is 104%. In the case of `O=C(c1ccc(OC(F)(F)F)cc1)N1CCC2(CCN(C(=O)c3cc(F)c(F)cc3F)C2)C1` (stereo not shown) [CBK131384], the viability at 28.5 h, 10 µM was 108%. Consider `NS(=O)(=O)c1ccc(C(=O)N2CCC3(CCN(C(=O)c4cc(F)c(F)cc4F)C3)C2)cc1` (stereo not shown) [CBK131385], for which the viability at 28.5 h, 10 µM is 104%. For the compound `O=C(c1cc(F)c(F)cc1F)N1CCC2(CCN(C(=O)C3COc4ccccc4O3)C2)C1` (stereo not shown) [CBK131390], the viability at 28.5 h, 10 µM is 107%. On the same count and under the same terms, with `O=C(c1ccc2ncccc2c1)N1CCC2(CCN(C(=O)c3cc(F)c(F)cc3F)C2)C1` (stereo not shown) [CBK131391] the figure was 91%. For the compound `O=C(c1ccc2c(c1)OCCO2)N1CCC2(CCN(C(=O)c3cc(F)c(F)cc3F)C2)C1` (stereo not shown) [CBK131410], the viability at 28.5 h, 10 µM turned out to be 98.2%. Same read-out and setting: with `NS(=O)(=O)c1ccc(C(=O)N2CCC3(CCN(C(=O)Cc4c[nH]c5ccccc45)C3)C2)cc1` (stereo not shown) [CBK131425] the figure was 100%; with `O=C(Cc1c[nH]c2ccccc12)N1CCC2(CCN(C(=O)c3ccc4[nH]c(=O)[nH]c4c3)C2)C1` (stereo not shown) [CBK131452], 90.8%; with `O=C(Cc1c[nH]c2ccccc12)N1CCC2(CCN(C(=O)c3cccnc3)C2)C1` (stereo not shown) [CBK131453], 80.6%. On to `CC(C)C(=O)N1CC2(CCN(CCCCC3NC(=O)NC3=O)CC2)c2ccccc21` (stereo not shown) [CBK131471], for which the viability at 28.5 h, 10 µM was 111%. For `CSCCN1CCC2(CC1)CN(C(=O)C(C)C)c1ccccc12` [CBK131473], the viability at 28.5 h, 10 µM was determined as 101%. Still for that read-out and setting: with `Cc1nc(CN2CCC3(CC2)CN(C(=O)C(C)C)c2ccccc23)cs1` [CBK131476] the figure was 108%; with `CCN1CC2(CCN(Cc3cc(OC)c(OC)c(OC)c3)CC2)c2ccccc21` [CBK131477], 93.2%. Same read-out and setting: with `CCN1CC2(CCN(CCCn3c(=O)[nH]c4ccccc43)CC2)c2ccccc21` [CBK131483] the figure was 93.7%. Consider `O=C(CO)N1CC2(CCN(Cc3ccc(OC(F)(F)F)cc3)CC2)c2ccccc21` [CBK131493], for which the viability at 28.5 h, 10 µM turned out to be 106%. In the case of `COc1cc(CN2CCC3(CC2)CN(C(=O)CO)c2ccccc23)cc(OC)c1OC` [CBK131494], the viability at 28.5 h, 10 µM stood at 94%.

Take `O=C(CO)N1CC2(CCN(CCc3c[nH]c4ccccc34)CC2)c2ccccc21` [CBK131503]: the viability at 28.5 h, 10 µM came out at 98.5%. Consider `O=C(CO)N1CC2(CCN(CCS(=O)(=O)c3ccccc3)CC2)c2ccccc21` [CBK131505], for which the viability at 28.5 h, 10 µM is 97.9%. Turning to `O=C(CO)N1CC2(CCN(CCCn3c(=O)[nH]c4ccccc43)CC2)c2ccccc21` [CBK131506], the viability at 28.5 h, 10 µM worked out at 91.9%. With `O=C(CN1CCC2(CC1)CN(C(=O)CO)c1ccccc12)Nc1ccc(F)c(Cl)c1` [CBK131509], the viability at 28.5 h, 10 µM amounted to 92.3%. For `O=C(CO)N1CC2(CCN(Cc3cc(=O)[nH]c(=O)[nH]3)CC2)c2ccccc21` [CBK131510], the viability at 28.5 h, 10 µM is 106%. In the case of `COc1ccc(OCCN2CCC3(CC2)CN(C(=O)CO)c2ccccc23)cc1` [CBK131512], the viability at 28.5 h, 10 µM was determined as 103%. With `Cc1nc(CN2CCC3(CC2)CN(C(=O)CO)c2ccccc23)cs1` [CBK131523], the viability at 28.5 h, 10 µM is 93.5%. For `COc1cc(CN2CCC3(CC2)CN(CCO)c2ccccc23)cc(OC)c1OC` [CBK131524], the viability at 28.5 h, 10 µM was found to be 94.9%.

Staying with this data set, now noted: human, hela cells, % viability, bulk resorufin, single well.
In the case of `O=C1NC(=O)C(=Cc2cccc(OCCOc3ccc([N+](=O)[O-])cc3)c2)C(=O)N1` [CBK126857], the viability at 28.5 h, 10 µM came to 95.7%.
